# Laboratory results: patent publication US20030175906A1, “Nuclease resistant chimeric oligonucleotides” (priority 2001, published 2003)
# Assays:
# [1] = In vivo nuclease stability of L/D-oligonucleotide chimera, full-length oligonucleotide in organs by CGE; parameters: species or system BalbC mouse; conditions: IV bolus, after 24 h
# Protocol: Here we report the in vivo nuclease stability of L/D-oligonucleotide chimera in mouse. We synthesized the phosphoramidite and CPG derived from L-thymidine, which was synthesized from a novel route [Jung, E. M.; Xu, Y. Tetrahedron Lett. 1997, 24, 4199-4202]. A 20 mer phosphorothioate oligonucleotide ISIS-120745 (antisense to mouse ICAM-1) was capped with L-2′-deoxy thymidine at 3′ and 5′-positions. The oligonucleotide was then administered IV bolus into BalbC mouse. After 24 h. mouse was sacrificed and the oligonucleotide was isolated from different organs. Percentage of full-length oligonucleotide present in different organs were analyzed by CGE.
# Target RNA = experiment: Tm values of L-thymidine modified oligonucleotides against RNA; type: binding
Substance,intact full-length oligonucleotide isolated from all the major organs [1] [%],ΔTm (Target RNA) [°C],"Tm, Target RNA (Target RNA) [°C]"
"ISIS 120745: 5′ T*GC ATC CCC CAG GCC ACC AT* 3′, T* = L-Thymidine, all P=S; antisense to mouse ICAM-1 (antisense TGCATCCCCCAGGCCACCAT; chemistry not fully specified)",> 90,−1.76,
"ISIS 121785: 5′ T*C^oC^oGCGCTGTGATGCA^oT^oT* 3′ (SEQ ID NO:2), L-thymidine caps, 2′-O-MOE, all P=S (DNA NNNCGCTGTGATGCNNN; L-thymidine caps, 2'-O-MOE, phosphorothioate, chemistry not fully specified)",,2.7,63.3
